Reference: patent US6605424B1, “Method of detecting inhibitors of agonist-specific desensitization” (Duke University, priority 1989, dated 2003)

How the values were obtained:
βAR kinase [1] = molecular target: T1, βAR kinase (Bos taurus, UniProt P21146); experiment: Phosphorylation of purified reconstituted β2ARs by purified βAR kinase (Example II); assay type: biochemical, bovine; conditions: for IC50: 50 μM (−)-isoproterenol, read-out: IC50, inhibition of phosphorylation of reconstituted β2ARs by βAR kinase
T1 construct: βAR kinase was purified from bovine cerebral cortex; from tissue; host or cells: bovine cerebral cortex
T1 sequence (P21146 1-689): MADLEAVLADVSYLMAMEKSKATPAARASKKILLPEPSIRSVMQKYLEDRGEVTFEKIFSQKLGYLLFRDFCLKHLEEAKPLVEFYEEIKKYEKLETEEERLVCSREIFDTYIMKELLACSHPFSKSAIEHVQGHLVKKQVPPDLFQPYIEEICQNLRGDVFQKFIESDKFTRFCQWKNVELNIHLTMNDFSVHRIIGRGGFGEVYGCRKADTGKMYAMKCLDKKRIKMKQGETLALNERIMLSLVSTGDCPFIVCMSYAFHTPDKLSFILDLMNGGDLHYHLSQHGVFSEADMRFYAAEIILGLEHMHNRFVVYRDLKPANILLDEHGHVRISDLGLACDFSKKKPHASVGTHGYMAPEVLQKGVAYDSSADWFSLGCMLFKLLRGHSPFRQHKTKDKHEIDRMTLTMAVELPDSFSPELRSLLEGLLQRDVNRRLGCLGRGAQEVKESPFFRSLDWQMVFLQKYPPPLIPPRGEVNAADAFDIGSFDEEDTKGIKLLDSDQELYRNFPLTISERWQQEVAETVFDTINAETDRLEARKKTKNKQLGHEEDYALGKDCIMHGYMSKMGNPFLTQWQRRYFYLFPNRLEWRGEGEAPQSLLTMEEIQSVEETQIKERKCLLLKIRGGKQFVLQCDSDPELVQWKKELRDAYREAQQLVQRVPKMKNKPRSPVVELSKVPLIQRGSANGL

[2] = system: β2ARs in intact A431 cells; experiment: Desensitization of β2ARs in intact A431 cells; assay type: cell-based, human; conditions: data not shown
permeabilized A431 cells = experiment: Accumulation of [32P]cAMP in permeabilized cells; assay type: cell-based, human; conditions: up to 1 μM; presence or absence of isoproterenol
βAR kinase [3] = molecular target: T1, βAR kinase; experiment: βAR kinase inhibition with the βAR as substrate (Example I, data not shown); assay type: biochemical, bovine
From the text: βAR kinase phosphorylates the β2AR, the α2-adrenergic receptor, and rhodopsin in a stimulus-dependent fashion. Rhodopsin was utilized as the substrate in these experiments because of its ease of isolation. However, the inhibitory effects of polyanions observed with βAR kinase-catalyzed phosphorylation of rhodopsin have also been observed using reconstituted β2AR as the substrate.

heparin was tested, and the “Inhibition of βAR kinase, %” value (βAR kinase [1]; 0.1 μM) was 96 ± 1%, the IC50 (βAR kinase [1]; listed as heparin) was 6.1 ± 2 nM and the IC50 (βAR kinase [1]) was 6 nM. For the same substance, the “extent of inhibition of β2AR phosphorylation” value (βAR kinase [1]; at 30-100 nM) was “almost complete inhibition”, the “effect on desensitization in intact cells” value [2] was “Neither compound affected desensitization” and the “effect on [32P]cAMP formation” value (permeabilized A431 cells) was “did not reduce”. The IC50 (βAR kinase [3]) was ~30 nM.
